Active and inactive are the calls of the source.
Legend:
[1] = system: Vero; assay: host cell viability loss, Vero E6 – synthesized analogs, cytotoxicity control for West Nile virus antiviral project, SAR follow-up (AID 2244); assay type: functional; details: Chlorocebus sabaeus
[2] = target: Transitional endoplasmic reticulum ATPase (Homo sapiens, UniProt P55072, C522A); assay: C522A mutant p97 ATPase inhibitors, dose response, counter-screen for p97 inhibitor project, biochemical, luminescence (AID 1544)
Chain of Transitional endoplasmic reticulum ATPase (Homo sapiens, UniProt P55072, C522A) (P55072 2-806 C522A limits assumed): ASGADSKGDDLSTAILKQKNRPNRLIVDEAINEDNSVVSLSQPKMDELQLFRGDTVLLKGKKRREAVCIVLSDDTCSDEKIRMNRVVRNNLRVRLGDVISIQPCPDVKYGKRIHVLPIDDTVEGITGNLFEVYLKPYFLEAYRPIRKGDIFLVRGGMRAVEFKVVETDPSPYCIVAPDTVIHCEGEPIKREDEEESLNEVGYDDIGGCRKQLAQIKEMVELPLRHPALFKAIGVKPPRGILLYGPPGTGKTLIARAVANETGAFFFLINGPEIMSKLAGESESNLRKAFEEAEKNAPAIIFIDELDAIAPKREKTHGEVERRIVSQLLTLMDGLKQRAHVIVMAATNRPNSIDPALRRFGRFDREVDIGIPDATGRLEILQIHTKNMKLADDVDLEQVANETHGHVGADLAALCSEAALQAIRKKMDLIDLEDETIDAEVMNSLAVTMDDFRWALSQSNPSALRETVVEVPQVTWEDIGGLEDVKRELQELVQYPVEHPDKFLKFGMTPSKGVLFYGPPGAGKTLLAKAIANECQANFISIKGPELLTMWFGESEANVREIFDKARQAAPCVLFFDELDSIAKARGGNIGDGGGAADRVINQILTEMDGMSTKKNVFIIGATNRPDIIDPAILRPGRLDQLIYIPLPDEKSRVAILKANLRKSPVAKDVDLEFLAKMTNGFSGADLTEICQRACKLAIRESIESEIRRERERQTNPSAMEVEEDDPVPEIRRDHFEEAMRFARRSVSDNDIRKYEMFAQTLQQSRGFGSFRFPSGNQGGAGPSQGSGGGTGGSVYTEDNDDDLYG

[3] = target: Transitional endoplasmic reticulum ATPase (Homo sapiens, UniProt P55072); assay: p97 ATPase inhibitors, dose response, biochemical (AID 1534)
Chain of Transitional endoplasmic reticulum ATPase (Homo sapiens, UniProt P55072) (P55072 whole entry): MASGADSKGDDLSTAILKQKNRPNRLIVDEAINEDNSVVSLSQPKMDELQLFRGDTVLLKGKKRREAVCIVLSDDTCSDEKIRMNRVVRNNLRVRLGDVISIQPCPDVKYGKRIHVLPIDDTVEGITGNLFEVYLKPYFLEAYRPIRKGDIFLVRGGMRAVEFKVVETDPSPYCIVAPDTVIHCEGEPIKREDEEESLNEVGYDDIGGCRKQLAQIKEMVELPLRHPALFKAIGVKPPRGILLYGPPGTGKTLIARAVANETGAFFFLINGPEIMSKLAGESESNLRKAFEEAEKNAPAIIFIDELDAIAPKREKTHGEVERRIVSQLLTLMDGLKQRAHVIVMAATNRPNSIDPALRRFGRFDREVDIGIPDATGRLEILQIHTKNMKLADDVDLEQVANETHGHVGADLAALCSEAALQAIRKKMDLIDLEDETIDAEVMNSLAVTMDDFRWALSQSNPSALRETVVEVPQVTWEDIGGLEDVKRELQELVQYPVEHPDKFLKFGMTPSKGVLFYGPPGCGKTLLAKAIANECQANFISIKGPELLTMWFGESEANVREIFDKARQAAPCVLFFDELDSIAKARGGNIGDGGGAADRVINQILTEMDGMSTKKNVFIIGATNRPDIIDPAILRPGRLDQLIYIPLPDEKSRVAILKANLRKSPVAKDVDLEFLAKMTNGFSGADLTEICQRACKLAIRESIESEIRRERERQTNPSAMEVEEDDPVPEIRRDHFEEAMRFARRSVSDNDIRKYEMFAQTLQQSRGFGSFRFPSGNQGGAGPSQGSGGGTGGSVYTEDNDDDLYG

[4] = target: Heat shock protein HSP 90-alpha (Homo sapiens, UniProt P07900); assay type: functional, organism-based
[5] = antiviral protection against BTV-induced cell death – arbovirus, BSR cells, confirmation (AID 1250); assay type: functional;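 also: protection from viral cytopathic effect measured as cell viability by ATP luminescence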
[6] = non-PhoP GFP expression and growth suppression – purified and synthesized compounds, set 2, counter-screen for PhoP regulon inhibitor project, dose response (AID 2834); assay type: functional
[7] = target: T1, Aspartyl aminopeptidase (Plasmodium falciparum 3D7, UniProt Q8I2J3)
T1 sequence (Q8I2J3 whole entry): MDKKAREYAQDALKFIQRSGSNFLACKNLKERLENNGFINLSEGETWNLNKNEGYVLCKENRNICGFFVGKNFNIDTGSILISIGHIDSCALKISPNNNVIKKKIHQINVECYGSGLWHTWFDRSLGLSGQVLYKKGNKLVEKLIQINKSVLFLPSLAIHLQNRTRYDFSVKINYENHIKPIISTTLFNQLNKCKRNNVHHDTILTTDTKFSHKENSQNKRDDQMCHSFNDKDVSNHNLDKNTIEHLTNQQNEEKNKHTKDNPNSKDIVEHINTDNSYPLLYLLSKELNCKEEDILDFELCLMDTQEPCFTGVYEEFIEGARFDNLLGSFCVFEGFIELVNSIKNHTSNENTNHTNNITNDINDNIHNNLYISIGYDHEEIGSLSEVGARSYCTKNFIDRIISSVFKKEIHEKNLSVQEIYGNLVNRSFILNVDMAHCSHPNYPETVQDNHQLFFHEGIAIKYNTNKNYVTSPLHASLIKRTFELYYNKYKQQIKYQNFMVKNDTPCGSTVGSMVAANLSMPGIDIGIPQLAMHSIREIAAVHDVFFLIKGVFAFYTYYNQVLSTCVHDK

[8] = target: Procathepsin L (Homo sapiens, UniProt P07711)
Chain of Procathepsin L (P07711 whole entry): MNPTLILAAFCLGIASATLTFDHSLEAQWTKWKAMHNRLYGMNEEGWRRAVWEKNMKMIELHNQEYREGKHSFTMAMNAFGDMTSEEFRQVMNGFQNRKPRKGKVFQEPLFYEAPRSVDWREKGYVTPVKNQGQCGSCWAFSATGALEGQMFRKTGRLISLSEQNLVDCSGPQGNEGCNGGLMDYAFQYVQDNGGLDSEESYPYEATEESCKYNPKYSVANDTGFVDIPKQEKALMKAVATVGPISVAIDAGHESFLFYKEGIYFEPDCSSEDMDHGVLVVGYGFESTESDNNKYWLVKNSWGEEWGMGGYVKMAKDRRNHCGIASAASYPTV

[9] = target: Chaperone protein dnaK (Escherichia coli, UniProt C3TRK2); assay: E. coli DnaK binders, calorimetric Kd – biophysical, isothermal titration calorimetry, beta-domain, full-length DnaK, orthogonal assay for DnaK modulator project, SAR follow-up (AID 1495)
Chain of Chaperone protein dnaK (C3TRK2 whole entry): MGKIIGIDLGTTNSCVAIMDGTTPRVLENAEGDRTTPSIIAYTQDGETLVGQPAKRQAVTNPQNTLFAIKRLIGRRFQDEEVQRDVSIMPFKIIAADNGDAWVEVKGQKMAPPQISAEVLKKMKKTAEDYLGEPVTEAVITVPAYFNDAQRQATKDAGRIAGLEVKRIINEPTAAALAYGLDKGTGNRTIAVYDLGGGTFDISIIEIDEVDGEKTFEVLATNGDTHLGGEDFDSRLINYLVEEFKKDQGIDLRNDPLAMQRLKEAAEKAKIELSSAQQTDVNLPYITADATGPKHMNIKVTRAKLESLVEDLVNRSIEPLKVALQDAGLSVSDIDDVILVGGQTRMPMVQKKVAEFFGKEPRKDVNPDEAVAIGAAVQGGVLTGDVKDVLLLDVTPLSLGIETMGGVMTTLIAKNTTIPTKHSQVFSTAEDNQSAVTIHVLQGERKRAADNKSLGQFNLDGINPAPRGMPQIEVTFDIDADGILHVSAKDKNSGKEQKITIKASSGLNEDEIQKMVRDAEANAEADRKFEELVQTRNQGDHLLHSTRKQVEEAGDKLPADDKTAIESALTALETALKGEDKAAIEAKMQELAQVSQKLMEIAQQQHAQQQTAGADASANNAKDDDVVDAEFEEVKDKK

[10] = target: T2, Eukaryotic translation initiation factor 4H (Homo sapiens, UniProt Q15056); assay: eIF4H binding inhibition – biochemical, uHTS, fluorescence polarization, translation initiation inhibitor project, primary screen (AID 2012)
[11] = target: T3, Polyadenylate-binding protein 1 (Homo sapiens, UniProt P11940); assay: blockers of PABP interaction with poly(A) – biochemical, fluorescence polarization, […] (AID 2014)
T3 sequence (P11940 whole entry): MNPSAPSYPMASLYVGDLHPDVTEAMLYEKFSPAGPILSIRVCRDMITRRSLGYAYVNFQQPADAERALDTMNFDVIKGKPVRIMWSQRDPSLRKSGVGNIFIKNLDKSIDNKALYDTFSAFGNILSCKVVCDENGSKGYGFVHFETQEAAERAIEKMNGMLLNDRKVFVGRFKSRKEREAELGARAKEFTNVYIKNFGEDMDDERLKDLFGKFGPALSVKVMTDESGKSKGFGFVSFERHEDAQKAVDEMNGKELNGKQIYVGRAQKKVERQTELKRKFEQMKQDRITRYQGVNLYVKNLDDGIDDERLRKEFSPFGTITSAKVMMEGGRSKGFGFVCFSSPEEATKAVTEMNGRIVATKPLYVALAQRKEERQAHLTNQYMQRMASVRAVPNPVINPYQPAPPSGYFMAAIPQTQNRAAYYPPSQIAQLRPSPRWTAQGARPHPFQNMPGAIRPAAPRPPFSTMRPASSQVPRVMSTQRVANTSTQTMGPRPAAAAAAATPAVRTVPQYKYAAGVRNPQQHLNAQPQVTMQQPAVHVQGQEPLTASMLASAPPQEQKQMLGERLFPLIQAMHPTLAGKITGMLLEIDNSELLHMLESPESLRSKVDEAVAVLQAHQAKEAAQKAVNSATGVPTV

[12] = target: T2, Eukaryotic translation initiation factor 4H; assay: inhibitors of translation initiation factor eIF4H – SAR follow-up (AID 435011); assay type: functional
[13] = target: T3, Polyadenylate-binding protein 1; assay: PABP inhibition in translation initiation, SAR follow-up (AID 435018); assay type: functional
[14] = target: Acyl-homoserine lactone acylase PvdQ (Pseudomonas aeruginosa (strain LESB58), UniProt Q9I194); assay: PvdQ acylase enzyme activity blockers – biochemical, fluorescence, plate reader and imaging, cherry-picks, dose response (AID 493231)
[15] = target: G-protein coupled receptor 35 (Homo sapiens, UniProt Q9HC97); assay: inhibition of zaprinast-stimulated GPR35 beta-arrestin translocation – imaging, U2OS, beta-arrestin-GFP, zaprinast agonist, primary screen (AID 2058); assay type: functional;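 also: antagonist potency meaning inhibition of agonist-induced arrestin redistribution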
Chain of G-protein coupled receptor 35 (Q9HC97 whole entry): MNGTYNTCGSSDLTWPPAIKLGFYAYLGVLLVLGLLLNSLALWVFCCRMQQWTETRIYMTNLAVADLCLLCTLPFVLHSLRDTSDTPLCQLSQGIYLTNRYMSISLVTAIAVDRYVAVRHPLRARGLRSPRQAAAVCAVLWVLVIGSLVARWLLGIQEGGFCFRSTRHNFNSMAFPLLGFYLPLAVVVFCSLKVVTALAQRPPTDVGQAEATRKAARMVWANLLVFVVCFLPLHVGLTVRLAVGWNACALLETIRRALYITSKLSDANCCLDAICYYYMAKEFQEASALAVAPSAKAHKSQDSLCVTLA

[16] = system: Vero; assay: mammalian cell viability reduction – secondary assay, cytotoxicity control for West Nile virus antiviral project, dose response (AID 1650); assay type: functional; details: Chlorocebus sabaeus
[17] = system: BJ; assay: BJ-TERT fibroblast viability loss – cell-based, RAS-independent, luminescence, dose response (AID 1933); assay type: functional; details: Homo sapiens
[18] = non-specific 3'UTR reporter inhibition in Clone20-Shn3RL – cell-based, Renilla luciferase, cherry-picked, counter-screen for Shn3 inhibitor project, dose response (AID 624133); assay type: functional
[19] = system: BJ; assay: cells; assay type: functional, cell-based; details: Homo sapiens
[20] = target: T4, Serine/threonine-protein phosphatase (Candida dubliniensis (strain CD36 / CBS 7987 / NCPF 3949 / NRRLY-17841) (Yeast), UniProt B9W6M3); assay: blockers of CaCl2-induced CDRE-lacZ signaling – S. cerevisiae, luminescence, secondary, dose response (AID 2388); assay type: functional, cell-based;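 also: yeast reporter cells carrying a calcineurin-responsive lacZ construct stimulated with calcium chloride; luminescent beta-galactosidase reporter signal in whole cells rather than isolated phosphatase activity; potency for inhibition where a drop in reporter signal means calcineurin blockade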
T4 sequence (B9W6M3 whole entry): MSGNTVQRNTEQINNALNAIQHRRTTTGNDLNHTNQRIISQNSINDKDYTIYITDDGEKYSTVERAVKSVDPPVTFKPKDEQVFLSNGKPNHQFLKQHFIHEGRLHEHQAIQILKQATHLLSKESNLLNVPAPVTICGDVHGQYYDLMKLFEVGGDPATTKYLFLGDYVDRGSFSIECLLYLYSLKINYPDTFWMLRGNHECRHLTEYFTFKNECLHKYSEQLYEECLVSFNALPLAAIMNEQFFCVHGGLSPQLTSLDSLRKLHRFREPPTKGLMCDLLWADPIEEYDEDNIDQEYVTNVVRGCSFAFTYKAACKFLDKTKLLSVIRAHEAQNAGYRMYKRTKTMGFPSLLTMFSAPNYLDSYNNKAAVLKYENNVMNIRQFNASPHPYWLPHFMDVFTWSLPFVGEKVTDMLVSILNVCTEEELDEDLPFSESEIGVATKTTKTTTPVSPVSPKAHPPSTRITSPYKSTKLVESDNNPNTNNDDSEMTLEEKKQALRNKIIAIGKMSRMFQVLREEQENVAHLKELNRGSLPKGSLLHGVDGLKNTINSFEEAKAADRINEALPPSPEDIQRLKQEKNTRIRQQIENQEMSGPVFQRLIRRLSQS

[21] = system: BJ; assay: BJ-TERT-LT-ST fibroblast viability loss – cell-based, RAS-independent, luminescence, dose response (AID 1935); assay type: functional; details: Homo sapiens;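 also: BJ fibroblasts immortalized with TERT plus LT and ST oncogenes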
[22] = loss of viability in HepG2 cells – cell-based, CellTiter-Glo, cherry-picked, cytotoxicity control for Shn3 inhibitor project, dose response (AID 624134); assay type: functional
[23] = HEK-293T viability loss, compound-treated – cell-based, uHTS hits, cytotoxicity control for B/T-cell NF-kB inhibitor project, dose response (AID 489019); assay type: functional;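 also: IC50 reflects cytotoxicity as loss of cell viability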
[24] = fluconazole-exposed Candida albicans growth modulators – fluorescence, retest, confirmation (AID 2467); assay type: functional, cell-based
[25] = DRD fibroblast viability loss – cell-based, non-viral oncogenic, luminescence, dose response (AID 1934); assay type: functional; details: Homo sapiens
[26] = system: Vero; assay: cells; assay type: functional; details: Chlorocebus sabaeus
[27] = system: H4; assay: Luminescence Cell-Based Dose Response HTS to Identify Activators of 5'UTR Stem-Loop Driven Prion Protein mRNA Translation in H4 Neuroglioblastoma Cells. [Related pubchem assays: 1829 (Project Summary), 1814 (Primary HTS)]; assay type: functional; details: Homo sapiens
[28] = target: NACHT, LRR and PYD domains-containing protein 3 (Homo sapiens, UniProt Q96P20); assay: NALP3 inhibitors in yeast, dose response, luminescent (AID 488799); assay type: functional
[29] = system: Jurkat; assay: blockers of NF-kB activation in T cells – Jurkat, luciferase reporter, luminescence, B- and T-cell, dose response (AID 489004); assay type: functional, cell-based; details: Homo sapiens;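 also: NF-kB luciferase reporter Jurkat cells stimulated with PMA plus ionomycin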
[30] = NIH-3T3 fibroblast cytotoxicity, dose response, cytotoxicity control, cell-based, fluorescence, Alamar Blue, secondary assay (AID 2327); assay type: functional;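 also: NIH-3T3 mouse fibroblasts cultured with fluconazole at 8 µg/mL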
[31] = reduction of Shn3 3'UTR-driven luciferase in osteoblasts – cell-based, Clone20 osteoblasts, firefly luciferase, cherry-picked, dose response (AID 624132); assay type: functional;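 also: firefly luciferase luminescence from reporter carrying the Shn3 3'UTR in osteoblasts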
[32] = system: Staphylococcus aureus; assay: Inhibitors of Bacterial Quorum Sensing Structure Activity Relationship (SAR) Analysis: Dose Response Assay. [Related pubchem assays: 700, 527 ]; assay type: functional, organism-based
[33] = target: Glyceraldehyde-3-phosphate dehydrogenase (Homo sapiens, UniProt P04406)
Chain of Glyceraldehyde-3-phosphate dehydrogenase (P04406 whole entry): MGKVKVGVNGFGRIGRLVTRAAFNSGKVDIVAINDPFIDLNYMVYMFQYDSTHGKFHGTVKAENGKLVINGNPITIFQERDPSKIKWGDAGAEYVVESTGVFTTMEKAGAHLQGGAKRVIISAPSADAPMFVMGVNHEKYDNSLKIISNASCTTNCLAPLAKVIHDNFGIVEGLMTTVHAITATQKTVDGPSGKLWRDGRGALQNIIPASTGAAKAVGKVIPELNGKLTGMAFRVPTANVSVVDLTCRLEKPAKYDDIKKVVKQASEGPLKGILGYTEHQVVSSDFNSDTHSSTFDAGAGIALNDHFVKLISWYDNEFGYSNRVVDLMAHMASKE

[34] = target: T5, Alkaline phosphatase, tissue-nonspecific isozyme (Homo sapiens, UniProt P05186); assay: potency against alkaline phosphatase TNAP – biochemical, luminescent, dose response, SAR follow-up (AID 1056)
T5 sequence (P05186 whole entry): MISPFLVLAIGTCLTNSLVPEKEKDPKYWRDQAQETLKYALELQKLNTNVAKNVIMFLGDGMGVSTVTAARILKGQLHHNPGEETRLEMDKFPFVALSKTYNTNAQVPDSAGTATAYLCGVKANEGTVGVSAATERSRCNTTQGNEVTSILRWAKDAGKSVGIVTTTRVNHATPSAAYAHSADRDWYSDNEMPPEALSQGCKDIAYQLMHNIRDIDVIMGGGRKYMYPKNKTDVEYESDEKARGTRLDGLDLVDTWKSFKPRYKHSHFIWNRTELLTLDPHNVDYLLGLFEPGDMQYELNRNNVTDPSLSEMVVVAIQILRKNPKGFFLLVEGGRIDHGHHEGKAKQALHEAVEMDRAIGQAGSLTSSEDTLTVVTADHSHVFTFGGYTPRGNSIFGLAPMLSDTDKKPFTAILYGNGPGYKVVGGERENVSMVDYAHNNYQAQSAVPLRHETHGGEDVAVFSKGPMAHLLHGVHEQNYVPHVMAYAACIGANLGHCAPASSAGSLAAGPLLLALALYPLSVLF

[35] = target: T6, Dual specificity protein phosphatase 6 (Rattus norvegicus, UniProt Q64346)
T6 sequence (Q64346 whole entry): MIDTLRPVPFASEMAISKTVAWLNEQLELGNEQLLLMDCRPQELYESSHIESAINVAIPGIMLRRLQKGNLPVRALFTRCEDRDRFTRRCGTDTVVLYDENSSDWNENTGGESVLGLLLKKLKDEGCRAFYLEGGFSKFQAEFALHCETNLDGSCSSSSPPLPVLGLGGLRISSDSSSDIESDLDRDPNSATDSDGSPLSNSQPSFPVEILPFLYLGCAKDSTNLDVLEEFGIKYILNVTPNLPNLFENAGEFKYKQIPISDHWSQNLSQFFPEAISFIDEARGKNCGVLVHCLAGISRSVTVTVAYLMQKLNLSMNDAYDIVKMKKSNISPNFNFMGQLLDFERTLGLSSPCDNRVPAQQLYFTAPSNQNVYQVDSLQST

[36] = target: T6, Dual specificity protein phosphatase 6; assay type: functional
[37] = target: T7, Tyrosine-protein phosphatase non-receptor type 7 (Homo sapiens, UniProt P35236); assay type: functional
T7 sequence (P35236 whole entry): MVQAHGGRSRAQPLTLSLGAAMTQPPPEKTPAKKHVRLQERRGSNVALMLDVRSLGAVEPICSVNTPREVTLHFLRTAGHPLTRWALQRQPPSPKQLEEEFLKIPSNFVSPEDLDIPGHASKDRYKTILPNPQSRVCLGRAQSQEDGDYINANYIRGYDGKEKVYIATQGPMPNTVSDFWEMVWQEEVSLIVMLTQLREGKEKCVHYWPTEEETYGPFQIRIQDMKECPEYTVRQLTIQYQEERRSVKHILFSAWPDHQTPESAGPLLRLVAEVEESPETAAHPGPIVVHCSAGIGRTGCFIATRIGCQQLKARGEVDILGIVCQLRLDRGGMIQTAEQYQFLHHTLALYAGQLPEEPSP

[38] = target: Heat shock cognate 71 kDa protein (Homo sapiens, UniProt P11142); assay: In Vitro Hsc70 Dose Response Fluorescence Polarization Assay. [Related pubchem assays: 1072 ]
[39] = target: Heat shock 70 kDa protein 1A (Homo sapiens, UniProt P0DMV8); assay: inhibition of Hsp70 binding activity – biochemical, fluorescence polarization, SAR follow-up (AID 1072)
Chain of Heat shock 70 kDa protein 1A (P0DMV8 whole entry): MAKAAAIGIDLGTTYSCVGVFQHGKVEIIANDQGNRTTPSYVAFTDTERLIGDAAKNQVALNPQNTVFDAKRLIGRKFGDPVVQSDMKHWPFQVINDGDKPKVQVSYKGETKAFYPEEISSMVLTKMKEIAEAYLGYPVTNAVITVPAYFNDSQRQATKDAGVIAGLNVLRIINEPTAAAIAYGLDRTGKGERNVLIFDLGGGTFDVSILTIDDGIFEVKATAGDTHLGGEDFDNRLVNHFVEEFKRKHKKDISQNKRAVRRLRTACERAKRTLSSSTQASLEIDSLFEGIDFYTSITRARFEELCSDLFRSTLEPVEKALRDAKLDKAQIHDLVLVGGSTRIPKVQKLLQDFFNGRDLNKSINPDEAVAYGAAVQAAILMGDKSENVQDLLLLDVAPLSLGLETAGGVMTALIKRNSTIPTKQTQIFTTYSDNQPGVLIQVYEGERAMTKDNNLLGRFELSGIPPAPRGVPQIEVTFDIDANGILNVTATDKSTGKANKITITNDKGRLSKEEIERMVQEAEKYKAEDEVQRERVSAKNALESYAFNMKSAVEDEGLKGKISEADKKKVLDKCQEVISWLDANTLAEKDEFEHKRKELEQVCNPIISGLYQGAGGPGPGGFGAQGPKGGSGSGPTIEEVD

[40] = target: Cyclin-dependent kinase 5/CDK5 activator 1 (Homo sapiens, UniProt Q00535); assay: blockade of human CDK5 activity – biochemical, cherry-picked samples, set 2, dose response (AID 504545)

## O=C(Nc1nc(-c2ccccc2)cs1)c1ccccc1Cl
[1]
  CC50: 14 µM (active)

## O=C(O)c1cccc(NN=C2c3ccccc3-c3ccccc32)c1
[2]
  IC50: > 50 µM (not active)
[3]
  IC50: 50 µM (not active)
[4]
  AC50: 8.32 µM (active)
[5]
  IC50: 23.9 µM (active)

## O=C1C2=C(Nc3ccccc3SC2c2ccc(I)cc2)c2ccccc21 (stereo not given)
[6]
  IC50: 232 µM (active)

## O=C(Nn1cnnc1)c1ccccc1-c1ccccc1
[7]
  IC50: 2.89 µM (active)
[8]
  IC50: > 59.6 µM (not active)

## O=C(NCc1ccccc1Br)c1cccs1
[9]
  Kd: 39.3 µM (inactive)

## CCn1c(=O)n(CC)c2cc(NC(=O)C(C)c3ccccc3)c(Br)cc21 (stereo not given)
[10]
  IC50: > 100 µM (inactive)
[11]
  IC50: 21.5 µM (active)
[12]
  IC50: > 100 µM (inactive)
[13]
  IC50: 9.4 µM (active)

## O=C1N[C@@H](Cc2ccccc2)[C@@H](c2ccco2)O1
[14]
  AC50: 7.07 µM (active)

## CN1CC=C2C(C#N)=C(N)C(C#N)(C#N)C(c3ccsc3)C2C1 (stereo not given)
[15]
  IC50: 0.991 µM (active)

## C[C@@H]1C[C@@H]2O[C@H]2/C=C\C=C\C(=O)Cc2c(Cl)c(O)cc(O)c2C(=O)O1
[16]
  CC50: 3.11 µM (active)
[17]
  EC50: 21 µM (active)
[18]
  AC50: 12.3 µM (active)
[19]
  EC50: 0.309 µM (active)
[20]
  EC50: > 180 µM (inactive)
[21]
  EC50: 1.81 µM (active)
[22]
  AC50: 49.8 µM (active)
[23]
  IC50: > 80 µM (inactive)
[24]
  EC50: 0.049 µM (active)
[25]
  EC50: 2.08 µM (active)
[26]
  CC50: 15.8 µM (active)
[27]
  EC50: > 120 µM (not active)
[28]
  IC50: 8.41 µM (active)
[29]
  IC50: 0.21 µM (active)
[30]
  EC50: 44.5 µM (inconclusive)
[31]
  AC50: 6.4 µM (active)

## CC1CCCN(C(C(=O)Nc2ccc3c(c2)OCCO3)c2ccccc2)C1 (stereo not given)
[32]
  IC50: 0.125 µM (active)

## O=C(O)c1ccc(N2C(=O)c3ccccc3C2=O)cc1
[33]
  IC50: > 100 µM (not active)
[34]
  IC50: > 100 µM (inactive)
[35]
  IC50: > 100 µM (inactive)
[36]
  IC50: > 100 µM (inactive)
[37]
  IC50: > 100 µM (not active)
[38]
  IC50: > 100 µM (not active)
[39]
  IC50: > 100 µM (not active)

## CC(C)n1cnc2c(Nc3ccc(F)c(Cl)c3)nc(NCCO)nc21
[40]
  AC50: 3.36 µM (active)
